Data set [1] can be described thus: Determination of pharmacokinetic parameters in rats. Particulars: for AUC: male, Wistar (RccHan:WIST), rat, po, 2 mg/kg.
Procedure: Male Wistar rats (RccHan:WIST) were obtained from Harlan (Venray, The Netherlands) and used for pharmacokinetic experiments after an acclimatization period of at least 7 days. The body weight of the rats was about 250 g at the day of the experiment. Two days prior to dosing, rats were anesthetized for surgery via inhalation of isoflurane (4-5% for induction and 1.5-3% for maintenance) in oxygen. Buprenorphine was dosed as analgesic at 0.03 mg/kg sc half an hour before surgery. Under aseptic conditions, catheters were implanted into jugular vein for dosing and carotid artery to allow for multiple serial blood sampling. […] Compounds were administered intravenously via a 5-minute infusion at doses of 0.5 or 1 mg/kg body weight formulated as solutions in water prepared by pH adjustment or as an aqueous mixed micellar vehicle based on phospholipids and bile acids (mixed micelles). […] Oral formulations were solutions in water prepared by pH adjustment or dispersions prepared by addition of a DMSO stock solution of the compounds to methylcellulose (0.5% w/v) in water. […] Blood samples were centrifuged at 3000 g (10 minutes, 4° C.) and plasma was submitted to LC-MS/MS analysis.
A short description of data set [2]: Human liver microsome assay (metabolic stability). It is filed as in vitro ADME. Particulars: human liver microsomes 0.5 mg/mL, compound 1 μM, 37° C., pH 7.4, NADPH-regenerating system. On the procedure:
Incubation with human liver microsomes was performed to assess metabolic stability at a single compound concentration of 1 μM. A 1 μL-aliquot of the compounds stock solutions in DMSO were added to 899 μL of 100 mM phosphate buffer (pH 7.4) containing the liver microsomes at a concentration of 0.5 mg/mL and the mixture was incubated at 37° C. in an Eppendorf thermomixer at 450 rpm. The reaction was initiated by addition of 100 μL of NADPH-regenerating system containing the glucose-6-phosphate dehydrogenase and at the pre-defined time points, 0, 1.5, 2.5, 5, 10, and 15 min, 100 μL of the incubation was transferred in 100 μL of ice-cold methanol to stop the reaction. Samples were centrifuged at 3220 g for 20 min at 4° C. and the supernatants were submitted to LC/MS-MS analysis.
Calculation of intrinsic clearance CLint:
Natural logarithm of remaining amount of compound was plotted as function of time and the slope of the line determined.
Elimination rate constant (k)=−slope
V=volume of incubation/amount of protein
On the technique in general: Liver microsomes are vesicles of endoplasmic reticulum, rich in cytochrome P450 enzymes.

The target of the next data set is T1, hERG K channel (Homo sapiens, UniProt Q12809).
T1 construct: host or cells: CHO
As to the kind of experiment: hERG Q-Patch assay. It is filed as cell-based. Particulars: CHO cells expressing hERG, K+ tail current 3 min after application, mean of two or three experiments.

Another data set has as its target T2, human CXCR3A (Homo sapiens, UniProt P49682).
T2 construct: expressed in transfected cells; host or cells: CHO-K1
T2 sequence (P49682 1-368): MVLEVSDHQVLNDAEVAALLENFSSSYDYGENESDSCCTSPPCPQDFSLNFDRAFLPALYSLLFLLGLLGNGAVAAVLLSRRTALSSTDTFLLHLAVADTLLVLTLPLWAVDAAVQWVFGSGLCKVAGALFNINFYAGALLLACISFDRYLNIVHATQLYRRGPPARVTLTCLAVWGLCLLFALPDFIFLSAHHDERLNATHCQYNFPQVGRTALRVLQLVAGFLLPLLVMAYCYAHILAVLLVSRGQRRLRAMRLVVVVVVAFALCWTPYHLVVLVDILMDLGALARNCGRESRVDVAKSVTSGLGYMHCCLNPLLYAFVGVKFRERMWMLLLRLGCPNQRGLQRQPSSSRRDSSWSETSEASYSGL
The data set can be described thus: FLIPR assay (CXCL10-induced calcium signal in CHO-K1 cells). Particulars: CHO-K1 cells expressing human CXCR3A coupled to Galpha(16); CXCL10 agonist 20 nM; mean values. It is filed as cell-based.

Usually AUC stands for concentration integrated over time. Higher therefore signals more exposure. A word on the microsomal CLint: it is a measure of how fast metabolising enzymes remove a compound, apart from limits set by blood flow. Low values mean greater metabolic stability, high ones faster metabolism. The IC50 is the concentration at which inhibition is half-maximal.

T1 sequence (Q12809 whole entry): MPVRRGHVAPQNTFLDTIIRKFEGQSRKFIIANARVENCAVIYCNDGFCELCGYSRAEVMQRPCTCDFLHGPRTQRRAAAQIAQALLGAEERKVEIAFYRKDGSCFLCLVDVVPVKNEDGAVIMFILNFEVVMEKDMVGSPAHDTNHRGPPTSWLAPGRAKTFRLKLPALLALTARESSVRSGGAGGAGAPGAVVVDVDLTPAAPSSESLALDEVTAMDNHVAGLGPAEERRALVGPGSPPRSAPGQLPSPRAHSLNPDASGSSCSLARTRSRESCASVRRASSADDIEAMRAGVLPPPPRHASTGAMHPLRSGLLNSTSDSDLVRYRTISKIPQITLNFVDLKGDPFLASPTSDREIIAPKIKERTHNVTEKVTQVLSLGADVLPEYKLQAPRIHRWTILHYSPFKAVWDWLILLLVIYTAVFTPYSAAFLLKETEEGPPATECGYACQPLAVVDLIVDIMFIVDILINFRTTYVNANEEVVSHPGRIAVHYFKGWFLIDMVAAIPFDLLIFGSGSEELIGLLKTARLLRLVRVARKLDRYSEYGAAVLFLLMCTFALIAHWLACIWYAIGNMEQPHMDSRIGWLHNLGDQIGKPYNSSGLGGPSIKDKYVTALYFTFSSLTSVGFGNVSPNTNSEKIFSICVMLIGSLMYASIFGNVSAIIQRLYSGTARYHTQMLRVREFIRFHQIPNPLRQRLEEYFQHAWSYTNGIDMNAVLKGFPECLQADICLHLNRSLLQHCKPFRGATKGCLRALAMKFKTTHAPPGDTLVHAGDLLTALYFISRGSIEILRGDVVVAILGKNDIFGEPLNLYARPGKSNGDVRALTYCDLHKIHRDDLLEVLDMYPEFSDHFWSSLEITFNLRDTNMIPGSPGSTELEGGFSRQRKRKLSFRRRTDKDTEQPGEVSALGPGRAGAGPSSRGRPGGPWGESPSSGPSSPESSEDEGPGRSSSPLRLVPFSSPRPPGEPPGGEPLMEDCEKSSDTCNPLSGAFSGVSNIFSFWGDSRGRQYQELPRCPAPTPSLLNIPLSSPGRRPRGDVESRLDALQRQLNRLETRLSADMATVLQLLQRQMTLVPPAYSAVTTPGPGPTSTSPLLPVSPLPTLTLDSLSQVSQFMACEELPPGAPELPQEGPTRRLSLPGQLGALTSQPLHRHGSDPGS

For the compound `Cc1nc(C)n(CC(=O)N2CCN(c3sc(C(F)(F)F)nc3-c3cnc(C(F)(F)F)nc3)C[C@H]2C)n1` [Example 24, 2-(3,5-Dimethyl-[1,2,4]triazol-1-yl)-1-{(R)-2-methyl-4-[2-trifluoromethyl-4-(2-trifluoromethyl-pyrimidin-5-yl)-thiazol-5-yl]-piperazin-1-yl}-ethanone], the “plasma concentration after oral administration” value in data set [1] (compared to reference compounds disclosed in WO 2010/126811) was “surprisingly high plasma concentration”. Further, in data set [1] (in vivo, pH 2.1), the AUC worked out at 14000 ng·h/mL.

In the case of `Cc1nc(C)n(CC(=O)N2CCN(c3sc(C(F)(F)F)nc3-c3cnc(OC4CCC4)nc3)C[C@H]2C)n1` [Example 38, 1-{(R)-4-[4-(2-Cyclobutoxy-pyrimidin-5-yl)-2-trifluoromethyl-thiazol-5-yl]-2-methyl-piperazin-1-yl}-2-(3,5-dimethyl-[1,2,4]triazol-1-yl)-ethanone], in data set [2], the microsomal CLint at 1 µM stood at 51 µL/min/mg. The “% block” value at hERG K channel (concentration 300 nM) was determined as 5%; on hERG K channel (concentration 3000 nM), 11%. In addition, the IC50 at human CXCR3A worked out at 2.3 nM.

Consider `Cc1nc(CO)n(CC(=O)N2CCN(c3sc(C(F)(F)F)nc3-c3cnc(C(F)(F)F)nc3)C[C@H]2C)n1` [Example 45, 2-(5-Hydroxymethyl-3-methyl-[1,2,4]triazol-1-yl)-1-{(R)-2-methyl-4-[2-trifluoromethyl-4-(2-trifluoromethyl-pyrimidin-5-yl)-thiazol-5-yl]-piperazin-1-yl}-ethanone], for which, in data set [2], the microsomal CLint at 1 µM was 14 µL/min/mg. Besides, the figures for the “% block” value at hERG K channel (concentration 300 nM) and at hERG K channel (concentration 3000 nM) were 0% and 1%, respectively. For the same compound, the IC50 on human CXCR3A came to 15 nM.

`CC[C@@H]1CN(c2sc(C(F)(F)F)nc2-c2cnc(C(F)(F)F)nc2)CCN1C(=O)Cn1nc(C)nc1C` [Example 51, 2-(3,5-Dimethyl-[1,2,4]triazol-1-yl)-1-{(R)-2-ethyl-4-[2-trifluoromethyl-4-(2-trifluoromethyl-pyrimidin-5-yl)-thiazol-5-yl]-piperazin-1-yl}-ethanone]: the microsomal CLint at 1 µM in data set [2] came to 1 µL/min/mg. Further, the entries for the “% block” value on hERG K channel (concentration 300 nM) and on hERG K channel (concentration 3000 nM) were 6% and 18%, respectively. Besides, on human CXCR3A, the IC50 is 0.6 nM.

The compound `COc1ncc(-c2cc(C(F)(F)F)ccc2N2CCN(C(=O)Cn3nc(C)cc3C)CC2)cn1` [reference compound 1, 2-(3,5-Dimethyl-pyrazol-1-yl)-1-{4-[2-(2-methoxy-pyrimidin-5-yl)-4-trifluoromethyl-phenyl]piperazin-1-yl}-ethanone] registered an AUC in data set [1] (plasma) of 273 ng·h/mL.

`CSc1ncc(-c2cc(C(F)(F)F)ccc2N2CCN(C(=O)Cn3nc(C)cc3C)CC2)cn1` [reference compound 2, 2-(3,5-Dimethyl-pyrazol-1-yl)-1-{4-[2-(2-methylsulfanyl-pyrimidin-5-yl)-4-trifluoromethyl-phenyl]-piperazin-1-yl}-ethanone] had an AUC in data set [1] (plasma) of 202 ng·h/mL. The AUC values of the last two compounds are within 1.5-fold of each other.

`CNc1ncc(-c2cc(C(F)(F)F)ccc2N2CCN(C(=O)Cn3nc(C)cc3C)CC2)cn1` [reference compound 3, 2-(3,5-Dimethyl-pyrazol-1-yl)-1-{4-[2-(2-methylamino-pyrimidin-5-yl)-4-trifluoromethyl-phenyl]-piperazin-1-yl}-ethanone]: the AUC in data set [1] (plasma, pH 3.03) stood at 271 ng·h/mL.

For the origin of these results see patent US10259807B2, “1-(piperazin-1-yl)-2-([1,2,4]triazol-1-yl)-ethanone derivatives” (Idorsia Pharmaceuticals Ltd., priority 2013, dated 2019).
